Where a name gives a salt, the structure may show the parent alone.
Tests used:
Type in all cases: cell-based
A431 cells = test: Cellular proliferation (Alamar Blue) assay, A431; conditions: Homo sapiens, A-431; A431 cells, Alamar Blue, 72 hr; read-out: A431 IC50
[1] = biological target: EGFR (A767_dupASV) expressing Ba/F3 stable cell line (Homo sapiens, UniProt P00533, DUP767-769, cells depend on it); test: Cellular proliferation (Alamar Blue) assay, EGFR A767_dupASV Ba/F3; conditions: 72 hr, read-out: A767 IC50
Chain of EGFR (A767_dupASV) expressing Ba/F3 stable cell line (P00533 with tags, fused parts or gaps DUP767-769): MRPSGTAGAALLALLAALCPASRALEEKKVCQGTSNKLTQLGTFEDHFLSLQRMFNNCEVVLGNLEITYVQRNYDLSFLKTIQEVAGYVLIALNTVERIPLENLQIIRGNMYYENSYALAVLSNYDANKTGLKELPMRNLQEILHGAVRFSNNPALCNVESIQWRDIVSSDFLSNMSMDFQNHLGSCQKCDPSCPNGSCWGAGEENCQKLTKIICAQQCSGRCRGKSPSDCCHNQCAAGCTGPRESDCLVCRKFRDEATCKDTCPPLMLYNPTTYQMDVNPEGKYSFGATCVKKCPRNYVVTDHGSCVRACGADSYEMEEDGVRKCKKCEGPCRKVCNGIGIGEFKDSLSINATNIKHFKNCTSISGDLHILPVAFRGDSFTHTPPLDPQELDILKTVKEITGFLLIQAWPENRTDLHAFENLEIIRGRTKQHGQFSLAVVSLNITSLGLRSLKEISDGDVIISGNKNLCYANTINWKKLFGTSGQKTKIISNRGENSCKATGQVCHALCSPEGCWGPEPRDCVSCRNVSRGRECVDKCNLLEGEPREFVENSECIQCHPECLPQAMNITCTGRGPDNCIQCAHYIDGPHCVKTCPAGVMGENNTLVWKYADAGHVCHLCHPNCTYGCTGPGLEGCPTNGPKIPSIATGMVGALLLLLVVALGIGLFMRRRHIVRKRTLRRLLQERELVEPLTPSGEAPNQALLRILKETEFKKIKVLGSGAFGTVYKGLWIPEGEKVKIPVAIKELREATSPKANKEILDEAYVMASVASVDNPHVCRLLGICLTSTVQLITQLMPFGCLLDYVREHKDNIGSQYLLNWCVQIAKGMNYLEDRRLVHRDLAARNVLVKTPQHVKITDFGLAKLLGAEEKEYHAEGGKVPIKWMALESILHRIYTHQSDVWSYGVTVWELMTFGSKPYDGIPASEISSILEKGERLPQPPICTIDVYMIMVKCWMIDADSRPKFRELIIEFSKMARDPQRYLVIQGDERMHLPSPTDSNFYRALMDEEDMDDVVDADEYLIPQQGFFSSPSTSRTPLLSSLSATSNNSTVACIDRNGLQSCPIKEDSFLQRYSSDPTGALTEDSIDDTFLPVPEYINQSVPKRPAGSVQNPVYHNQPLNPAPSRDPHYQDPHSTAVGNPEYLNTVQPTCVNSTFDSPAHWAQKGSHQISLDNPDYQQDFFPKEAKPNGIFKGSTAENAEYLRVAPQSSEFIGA
Summary of the method: (§1)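 Ba/F3 cells stably expressing the mutant were seeded at 15,000 per well in RPMI with 10% FBS and left 16-18 hours at 37 degree Celsius. Compounds were then added in 3-fold serial dilutions (final 10-0.0005 μM) for 72 hr, and viability was read with Alamar Blue after 3 hours.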

[2] = biological target: HER2 (A775_G776insYVMA) expressing Ba/F3 stable cell line (Homo sapiens, UniProt P04626, DUP772-775, cells depend on it); test: Cellular proliferation (Alamar Blue) assay, HER2 A775_G776insYVMA Ba/F3; conditions: 72 hr, read-out: YVMA IC50
Chain of HER2 (A775_G776insYVMA) expressing Ba/F3 stable cell line (P04626 with tags, fused parts or gaps DUP772-775): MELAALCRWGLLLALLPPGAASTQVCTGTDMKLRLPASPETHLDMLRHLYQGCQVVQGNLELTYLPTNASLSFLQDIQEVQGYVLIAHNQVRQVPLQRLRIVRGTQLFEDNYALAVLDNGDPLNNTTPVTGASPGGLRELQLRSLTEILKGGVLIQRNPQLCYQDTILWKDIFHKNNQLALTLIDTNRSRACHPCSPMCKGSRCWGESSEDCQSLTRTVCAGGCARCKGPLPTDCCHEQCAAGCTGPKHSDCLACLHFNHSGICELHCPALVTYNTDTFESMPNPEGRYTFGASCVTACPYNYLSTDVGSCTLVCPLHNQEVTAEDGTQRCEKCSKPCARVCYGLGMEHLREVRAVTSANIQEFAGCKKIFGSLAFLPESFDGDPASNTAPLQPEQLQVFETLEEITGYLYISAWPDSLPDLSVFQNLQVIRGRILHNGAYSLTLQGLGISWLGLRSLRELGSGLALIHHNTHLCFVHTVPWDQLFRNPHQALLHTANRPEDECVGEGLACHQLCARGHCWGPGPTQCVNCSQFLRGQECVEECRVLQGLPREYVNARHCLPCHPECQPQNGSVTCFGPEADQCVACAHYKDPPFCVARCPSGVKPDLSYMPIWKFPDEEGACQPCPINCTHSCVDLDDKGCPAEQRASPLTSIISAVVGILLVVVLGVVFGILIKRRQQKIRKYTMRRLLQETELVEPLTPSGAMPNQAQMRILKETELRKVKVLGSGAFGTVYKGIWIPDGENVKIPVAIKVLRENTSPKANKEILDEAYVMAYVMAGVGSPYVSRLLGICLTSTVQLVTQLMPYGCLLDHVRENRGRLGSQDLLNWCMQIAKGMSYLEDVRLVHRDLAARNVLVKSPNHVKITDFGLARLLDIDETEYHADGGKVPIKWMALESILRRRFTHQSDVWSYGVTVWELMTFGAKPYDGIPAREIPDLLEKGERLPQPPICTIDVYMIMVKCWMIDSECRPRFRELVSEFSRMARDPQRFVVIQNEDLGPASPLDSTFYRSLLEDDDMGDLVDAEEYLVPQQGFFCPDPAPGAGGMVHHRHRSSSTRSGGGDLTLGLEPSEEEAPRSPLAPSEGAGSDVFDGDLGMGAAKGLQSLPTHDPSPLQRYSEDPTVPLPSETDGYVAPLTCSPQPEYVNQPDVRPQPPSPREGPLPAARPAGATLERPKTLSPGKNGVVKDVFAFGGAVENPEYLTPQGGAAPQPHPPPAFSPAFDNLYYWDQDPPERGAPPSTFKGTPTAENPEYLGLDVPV
Summary of the method: as §1

[3] = biological target: EGFR(D770_N771insSVD) expressing Ba/F3 stable cell line (Homo sapiens, UniProt P00533, DUP768-770, cells depend on it); test: Cellular proliferation (Alamar Blue) assay, EGFR D770_N771insSVD Ba/F3; conditions: 72 hr, read-out: D770 IC50
Chain of EGFR(D770_N771insSVD) expressing Ba/F3 stable cell line (P00533 with tags, fused parts or gaps DUP768-770): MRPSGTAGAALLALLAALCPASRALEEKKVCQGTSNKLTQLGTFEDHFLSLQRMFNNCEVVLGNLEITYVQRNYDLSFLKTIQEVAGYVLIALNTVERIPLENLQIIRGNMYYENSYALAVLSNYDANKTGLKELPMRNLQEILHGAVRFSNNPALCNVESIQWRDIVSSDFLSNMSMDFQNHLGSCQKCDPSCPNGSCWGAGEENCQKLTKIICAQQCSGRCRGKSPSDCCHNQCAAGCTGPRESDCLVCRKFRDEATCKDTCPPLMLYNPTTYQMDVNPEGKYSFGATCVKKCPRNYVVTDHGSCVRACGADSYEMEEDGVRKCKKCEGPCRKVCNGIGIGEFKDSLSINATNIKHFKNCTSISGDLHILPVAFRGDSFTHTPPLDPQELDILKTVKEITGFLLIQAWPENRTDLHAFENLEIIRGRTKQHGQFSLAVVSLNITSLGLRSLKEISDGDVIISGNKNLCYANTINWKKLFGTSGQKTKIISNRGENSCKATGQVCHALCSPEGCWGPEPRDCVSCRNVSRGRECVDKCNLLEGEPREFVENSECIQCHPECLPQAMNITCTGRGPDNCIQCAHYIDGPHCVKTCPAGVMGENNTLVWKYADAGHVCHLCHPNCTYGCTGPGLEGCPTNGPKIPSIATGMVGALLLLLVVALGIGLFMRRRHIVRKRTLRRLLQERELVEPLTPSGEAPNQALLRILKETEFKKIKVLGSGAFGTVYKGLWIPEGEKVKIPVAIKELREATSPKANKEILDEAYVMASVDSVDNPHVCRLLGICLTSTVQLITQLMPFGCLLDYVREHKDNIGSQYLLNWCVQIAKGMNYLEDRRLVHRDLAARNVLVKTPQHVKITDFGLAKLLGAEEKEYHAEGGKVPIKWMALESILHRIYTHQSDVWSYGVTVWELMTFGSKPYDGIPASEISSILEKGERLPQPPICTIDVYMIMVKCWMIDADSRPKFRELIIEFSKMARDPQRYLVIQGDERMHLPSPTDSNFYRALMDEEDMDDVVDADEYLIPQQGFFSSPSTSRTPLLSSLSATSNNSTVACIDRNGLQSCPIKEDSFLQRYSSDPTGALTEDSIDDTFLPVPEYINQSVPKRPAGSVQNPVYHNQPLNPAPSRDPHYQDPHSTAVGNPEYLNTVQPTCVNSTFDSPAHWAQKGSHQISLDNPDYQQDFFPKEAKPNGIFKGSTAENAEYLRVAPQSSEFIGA
Summary of the method: as §1

| SMILES | IC50 (A431 cells) | GI50 [1] | GI50 [2] | GI50 [3] |
| --- | --- | --- | --- | --- |
| C=CC(=O)Nc1ccc(F)c(Nc2nc(Nc3cnn(C)c3)ncc2-c2ccc3cccnc3c2)c1 [Compound 131, N-(4-fluoro-3-((2-((1-methyl-1H-pyrazol-4-yl)amino)-5-(quinolin-7-yl)pyrimidin-4-yl)amino)phenyl)acrylamide] | 365 nM | 758 nM | 348 nM | 202 nM |
| C=CC(=O)Nc1ccc(F)c(Nc2nc(Nc3cnn(C)c3)ncc2-c2ccn3ccnc3c2)c1 [Compound 132, N-(4-fluoro-3-((5-(imidazo[1,2-a]pyridin-7-yl)-2-((1-methyl-1H-pyrazol-4-yl)amino)pyrimidin-4-yl)amino)phenyl)acrylamide] | 504 nM | 368 nM | 151 nM | 203 nM |
| C=CC(=O)Nc1ccc(F)c(Nc2nc(Nc3cnn(C)c3)ncc2-c2cccc3ccccc23)c1 [Compound 136, N-(4-fluoro-3-((2-((1-methyl-1H-pyrazol-4-yl)amino)-5-(naphthalen-1-yl)pyrimidin-4-yl)amino)phenyl)acrylamide trifluoroacetate] | 40 nM | 299 nM | 412 nM | 106 nM |
| C=CC(=O)Nc1ccc(F)c(Nc2nc(Nc3cnn(C)c3)ncc2-c2ccncc2)c1 [Compound 137, N-(4-fluoro-3-((2-((1-methyl-1H-pyrazol-4-yl)amino)-5-(pyridin-4-yl)pyrimidin-4-yl)amino)phenyl)acrylamide] | > 10000 nM | 325 nM | 751 nM | 254 nM |
| C=CC(=O)Nc1ccc(F)c(Nc2nc(Nc3cn(C)nc3C(F)(F)F)ncc2-c2ccc(C(F)(F)F)cc2)c1 [Compound 146, N-(4-fluoro-3-((2-((1-methyl-3-(trifluoromethyl)-1H-pyrazol-4-yl)amino)-5-(4-(trifluoromethyl)phenyl)pyrimidin-4-yl)amino)phenyl)acrylamide trifluoroacetate] | 274 nM | 279 nM | 6130 nM | 342 nM |
| C=CC(=O)Nc1ccc(F)c(Nc2nc(Nc3cnn(C)c3)ncc2-c2ccc3ccccc3c2)c1 [Compound 149, N-(4-fluoro-3-((2-((1-methyl-1H-pyrazol-4-yl)amino)-5-(naphthalen-2-yl)pyrimidin-4-yl)amino)phenyl)acrylamide trifluoroacetate] | 469 nM | 747 nM | 501 nM | 308 nM |
| C=CC(=O)Nc1cccc(Nc2nc(Nc3cnn(C)c3)nnc2Cl)c1 [Compound 156, N-(3-((6-chloro-3-((1-methyl-1H-pyrazol-4-yl)amino)-1,2,4-triazin-5-yl)amino)phenyl)acrylamide] | 8020 nM | 2440 nM | 1520 nM | 1890 nM |
| C=CC(=O)Nc1cccc(Oc2nc(Nc3cnn(C)c3)nnc2Cl)c1 [Compound 157, N-(3-((6-chloro-3-((1-methyl-1H-pyrazol-4-yl)amino)-1,2,4-triazin-5-yl)oxy)phenyl)acrylamide] | > 10000 nM | > 10000 nM | 3660 nM | > 10000 nM |
| C=CC(=O)Nc1cccc(Oc2nc(Nc3cnn(C)c3)cnc2C)c1 [Compound 158, N-(3-((3-methyl-6-((1-methyl-1H-pyrazol-4-yl)amino)pyrazin-2-yl)oxy)phenyl)acrylamide] | > 10000 nM | > 10000 nM | > 10000 nM | > 10000 nM |
| C=CC(=O)Nc1ccc(F)c(-c2nc(Nc3cnn(C)c3)ncc2Cl)c1 [Compound 159, N-(3-{5-chloro-2-[(1-methyl-1H-pyrazol-4-yl)amino]pyrimidin-4-yl}-4-fluorophenyl)prop-2-enamide] | > 10000 nM | 2780 nM | > 10000 nM | 9550 nM |
| CN(C)C/C=C/C(=O)Nc1ccc(F)c(-c2nc(Nc3cnn(C)c3)ncc2Cl)c1 [Compound 160, (E)-N-(3-(5-chloro-2-((1-methyl-1H-pyrazol-4-yl)amino)pyrimidin-4-yl)-4-fluorophenyl)-4-(dimethylamino)but-2-enamide] | > 10000 nM | > 10000 nM | > 10000 nM | > 10000 nM |
| C=CC(=O)Nc1ccc(F)c(Nc2nc(Nc3cnn(C)c3)ncc2C#Cc2ccccc2)c1 [Compound 161, N-[4-fluoro-3-({2-[(1-methyl-1H-pyrazol-4-yl)amino]-5-(2-phenylethynyl)pyrimidin-4-yl}amino)phenyl]prop-2-enamide] | > 10000 nM | 289 nM | 897 nM | 288 nM |
| CN(C)C/C=C/C(=O)Nc1ccc(F)c(Nc2nc(Nc3cnn(C)c3)ncc2C#Cc2ccccc2)c1 [Compound 162, (E)-4-(dimethylamino)-N-(4-fluoro-3-((2-((1-methyl-1H-pyrazol-4-yl)amino)-5-(phenylethynyl)pyrimidin-4-yl)amino)phenyl)but-2-enamide] | 2850 nM | 656 nM | 1880 nM | 1850 nM |
| C=CC(=O)Nc1ccc(C(=O)Nc2ccccc2)c(Nc2ccnc(Nc3cnn(C)c3)n2)c1 [Compound 164, 4-acrylamido-2-((2-((1-methyl-1H-pyrazol-4-yl)amino)pyrimidin-4-yl)amino)-N-phenylbenzamide] | > 10000 nM | > 10000 nM | 9490 nM | > 10000 nM |
| C=CC(=O)Nc1ccc(Cl)c(Nc2ccnc(Nc3cnn(C)c3)n2)c1 [Compound 165, N4-(5-amino-2-chlorophenyl)-N2-(1-methyl-1H-pyrazol-4-yl)pyrimidine-2,4-diamineprop-2-enoyl chloride] | > 10000 nM | > 10000 nM | 9930 nM | > 10000 nM |
| C=CC(=O)Nc1ccc(F)c(Oc2nc(Nc3cnn(C)c3)ncc2Cl)c1 [Compound 166, N-(3-((5-chloro-2-((1-methyl-1H-pyrazol-4-yl)amino)pyrimidin-4-yl)oxy)-4-fluorophenyl)acrylamide] | > 10000 nM | 1250 nM | 1690 nM | 1320 nM |
| C=CC(=O)Nc1ccc(F)c(Oc2nc(Nc3cnn(CCO)c3)ncc2Cl)c1 [Compound 167, N-(3-((5-chloro-2-((1-(2-hydroxyethyl)-1H-pyrazol-4-yl)amino)pyrimidin-4-yl)oxy)-4-fluorophenyl)acrylamide] | > 10000 nM | 1330 nM | 1750 nM | 2150 nM |
| C=CC(=O)Nc1ccc(F)c(Oc2nc(Nc3cnn(C4CCN(C)CC4)c3)ncc2Cl)c1 [Compound 168, N-(3-((5-chloro-2-((1-(1-methylpiperidin-4-yl)-1H-pyrazol-4-yl)amino)pyrimidin-4-yl)oxy)-4-fluorophenyl)acrylamide] | > 10000 nM | 904 nM | 2260 nM | 929 nM |
| C=CC(=O)Nc1ccc(OC)c(Oc2nc(Nc3cnn(C4CCN(C)CC4)c3)ncc2Cl)c1 [Compound 170, N-(3-((5-chloro-2-((1-(1-methylpiperidin-4-yl)-1H-pyrazol-4-yl)amino)pyrimidin-4-yl)oxy)-4-methoxyphenyl)acrylamide] | > 10000 nM | > 10000 nM | 9710 nM | > 10000 nM |
| C=CC(=O)Nc1ccc(OC)c(Oc2nc(Nc3cnn(C)c3)ncc2Cl)c1 [Compound 172, N-[3-({5-chloro-2-[(1-methyl-1H-pyrazol-4-yl)amino]pyrimidin-4-yl}oxy)-4-methoxyphenyl] prop-2-enamide] | > 10000 nM | > 10000 nM | > 10000 nM | > 10000 nM |
| C=CC(=O)Nc1cccc(F)c1CNc1nc(Nc2cnn(C)c2)ncc1Cl [Compound 173, N-(2-(((5-chloro-2-((1-methyl-1H-pyrazol-4-yl)amino)pyrimidin-4-yl)amino)methyl)-3-fluorophenyl)acrylamide] | > 10000 nM | > 10000 nM | 2000 nM | 9780 nM |
| C=CC(=O)Nc1ccc(-c2ccccc2)c(Nc2ccnc(Nc3cnn(C)c3)n2)c1 [Compound 175, N-[2-({2-[(1-methyl-1H-pyrazol-4-yl)amino]pyrimidin-4-yl}amino)-[1,1′-biphenyl]-4-yl]prop-2-enamide] | > 10000 nM | > 10000 nM | > 10000 nM | > 10000 nM |
| CN(C)C/C=C/C(=O)Nc1ccc(-c2ccccc2)c(Nc2ccnc(Nc3cnn(C)c3)n2)c1 [Compound 176, (E)-4-(dimethylamino)-N-(2-((2-((1-methyl-1H-pyrazol-4-yl)amino)pyrimidin-4-yl)amino)-[1,1′-biphenyl]-4-yl)but-2-enamide] | > 10000 nM | 8020 nM | > 10000 nM | > 10000 nM |
| C=CC(=O)Nc1ccc(-c2ccccc2)c(Nc2nc(Nc3cnn(C)c3)ncc2Cl)c1 [Compound 177, N-(2-((5-chloro-2-((1-methyl-1H-pyrazol-4-yl)amino)pyrimidin-4-yl)amino)-[1,1′-biphenyl]-4-yl)acrylamide] | > 10000 nM | > 10000 nM | > 10000 nM | > 10000 nM |
| CN(C)C/C=C/C(=O)Nc1ccc(C#Cc2ccccc2)c(Nc2nc(Nc3cnn(C)c3)ncc2Cl)c1 [Compound 179, (E)-N-(3-((5-chloro-2-((1-methyl-1H-pyrazol-4-yl)amino)pyrimidin-4-yl)amino)-4-(phenylethynyl)phenyl)-4-(dimethylamino)but-2-enamide] | > 10000 nM | > 10000 nM | 4030 nM | > 10000 nM |

Source: patent publication US12686673B2 (Blueprint Medicines Corporation, priority 2020, dated 2026)
